{
  "source": "patent US12037354B2",
  "about": "“Cyclic pantetheine derivatives and uses thereof” (VectivBio Comet AG, priority 2018, dated 2024)",
  "key": {"[1]": {"test_system": "Monocytes differentiated to M1 macrophages", "assay": "M1 differentiation assay (TNFα, IL6, IL10 ELISA, FACS), Example 807", "format": "cell-based, human", "procedure": "Monocytes were isolated by positive isolation with CD14+ microbeads (Miltenyi, 130-050-201). Monocytes were 99% viable and were 96% purity as analyzed by FACS and CD14+(BD, 563561). 100,000 monocytes along with compounds at the dose of 10 and 50 μM were allowed to differentiate to macrophages with 10 ng/ml GMCSF (R&D, 15-GM-050/CF) in RPMI complete media (Invitrogen, 22400089) with 15% FBS (Hyclone SV30087.03) and 1% Penicillin-Streptomycin (Gibco, 15140-122). On day 2 and 4 half the media was refreshed with fresh GM-CSF and compounds at 10 and 50 μM dose. On day 6 the macrophages were matured with GMCSF, IFNγ (R&D 285-IF-100/CF) and LPS (Sigma, L6143) in the presence of 10 μM and 50 μM of compounds. After 24 h, supernatant was collected for the measurement of TNFα (DKW, 1117202) IL6 (DKW, 1110602), IL10 (DKW, 1110003) by ELISA. Macrophages were detached gently on ice with EDTA (Invitrogen, 15575-038) and analyzed by FACS (BD LSR Fortessa, 853492). Cells were stained for live/dead dye, surface and intracellular markers with fixation/permeabilization solution (BD, 554714) and ALIVE/DEAD™ Fixable Near-IR Dead Cell Stain Kit (BD, L34976), mouse anti human CD86 APC (BD, 555660), mouse anti-human CD163 PE (BD, 556018), mouse anti-human CD68 FITC (BD, 562117) or isotype controls anti-mouse IgG1 κ PE (BD, 559320) and anti-mouse IgG1 κ APC (BD, Anti mouse IgG1 κ APC (BD, 55571). Mature M1 macrophages were defined as CD86+CD68+CD163− and increase in TNFα, IL6, and decrease in IL-10."}, "[2]": {"test_system": "Pkd1-/- mouse inner medullary collecting duct cells (mIMRFNPKD 5E4)", "assay": "mPKD 3D cyst swelling assay (forskolin-induced), Example 818", "format": "cell-based", "conditions": "50 uM, after 72 hours of forskolin exposure", "procedure": "Cell model and control compounds. mIMCD3 WT cells were obtained via ATCC and modified to create the mIMRFNPKD 5E4 cell line, which has a CRISPR-Cas mediated knockout for Pkd1 as described SLAS Discov. 2017 September; 22(8):974-984. doi: 10.1177/2472555217716056. Cells were cultured in DMEM/F12 (Sigma)+10% FBS (Sigma)+0.5% Pen/Strep (Gibco)+1% GluMax (Gibco). Control compounds used were forskolin (Calbiochem, 344282), Rapamycin (Selleckchem, S1039) and Staurosporin (Selleckchem, S1421).\nThe 3D mouse cyst swelling assay was performed with Pkd1^−/− mouse inner medullary collecting duct cells (mIMRFNPKD 5E4). The cyst swelling protocol that was used was described previously (SLAS Discov. 2017 September; 22(8):974-984. doi: 10.1177/2472555217716056), with further optimization.\n3D culture and compound exposure. mIMRFNPKD 5E4 cells were mixed with Cyst-Gel (OcellO BV). 15 μL of cell-gel mix was pipetted to 384-well plates (Greiner μClear, Greiner Bio-One B.V.) using a CyBio Felix 96/60 robotic liquid dispenser (Analyik Jena AG). […]\nImaging and image analysis. […] Cyst area was determined by calculating for the area in px of each object in every in-focus plain. […] (N represented is number of wells) Fraction of apoptotic nuclei as an indicator of toxicity was calculated as the amount of nuclei without actin signal relative to the total amount of nuclei, both as count-measurements. […]"}},
  "data": [
    {"smiles": "CC1(C)OC(=O)C(CC(=O)SCCNC(=O)CCNC(=O)[C@@H]2OC(C)(C)OCC2(C)C)O1", "note": "(stereo partly drawn) [Compound 851]", "values": [
      {"measurement": "% Increase in IL-10 Secretion", "setting": "[1]; 10 uM", "result": "≥30", "unit": "%"},
      {"measurement": "% decrease in Macrophage IL-6 Secretion", "setting": "[1]; 10 uM", "result": "≥30", "unit": "%"},
      {"measurement": "% decrease in Macrophage TNFα Secretion", "setting": "[1]; 10 uM", "result": "≥30", "unit": "%"}
    ]},
    {"smiles": "COC(=O)/C=C/C(=O)SCCNC(=O)CCNC(=O)[C@@H]1OP(=O)(O)OCC1(C)C", "note": "[Compound 21]", "values": [
      {"measurement": "% prevention of forskolin-induced cyst swelling", "setting": "[2]", "result": "≥10", "unit": "%"}
    ]},
    {"smiles": "CC(C)=CC(=O)SCCNC(=O)CCNC(=O)[C@@H]1OC(C)(C)OCC1(C)C", "note": "[Compound 850, S-2-(3-{[(R)-2,2,5,5-Tetramethyl-1,3-dioxan-4-yl]carbonylamino}propionylamino)ethyl 3-methyl-2-butenethioate]", "values": [
      {"measurement": "% decrease in Macrophage IL-6 Secretion", "setting": "[1]; 10 uM", "result": "≥30", "unit": "%"},
      {"measurement": "% decrease in Macrophage TNFα Secretion", "setting": "[1]; 50 uM", "result": "≥30", "unit": "%"}
    ]}
  ]
}
